# Data reported in article PMC7866087, “Evaluation of Computationally Designed Peptides against TWEAK, a Cytokine of the Tumour Necrosis Factor Ligand Family” (International Journal of Molecular Sciences, 2021).
# Where “and” joins values, the source holds several entries; their conditions need not be identical. Identical values can stand only once.
# System: TWEAK-Fn14 signalling pathway, BRV5 cells
# Test: Cell-based screening of individual peptides, gene expression microarray in TWEAK-stimulated BRV5 cells
# Parameters: species or system human
# Settings: 6 h; for regulation of probe genes by individual peptides: BRV5 + TWEAK 25 ng/mL, peptides 450 µM; for BIRC2 mRNA expression (normalized to NARS2) / HSP90B1 mRNA expression (normalized to NARS2) / IL6 mRNA expression (normalized to NARS2) / JUN mRNA expression (normalized to NARS2) / MAP4K4 mRNA expression (normalized to NARS2) / MAPK14 mRNA expression (normalized to NARS2) / NFKB2 mRNA expression (normalized to NARS2) / TNFRSF12A mRNA expression (normalized to NARS2) / TRAF2 mRNA expression (normalized to NARS2) / BIRC2 expression Z-Score / HSP90B1 expression Z-Score / IL6 expression Z-Score / JUN expression Z-Score / MAP4K4 expression Z-Score / MAPK14 expression Z-Score / NFKB2 expression Z-Score / TNFRSF12A expression Z-Score / TRAF2 expression Z-Score: individual peptides, BRV5 + TWEAK; for BIRC2 mRNA expression (normalized to NARS2) / HSP90B1 mRNA expression (normalized to NARS2) / IL6 mRNA expression (normalized to NARS2) / JUN mRNA expression (normalized to NARS2) / MAP4K4 mRNA expression (normalized to NARS2) / MAPK14 mRNA expression (normalized to NARS2) / NFKB2 mRNA expression (normalized to NARS2) / TNFRSF12A mRNA expression (normalized to NARS2) / TRAF2 mRNA expression (normalized to NARS2): 450 µM; for BIRC2 expression Z-Score / HSP90B1 expression Z-Score / IL6 expression Z-Score / JUN expression Z-Score / MAP4K4 expression Z-Score / MAPK14 expression Z-Score / NFKB2 expression Z-Score / TNFRSF12A expression Z-Score / TRAF2 expression Z-Score: normalized to NARS2
# Source text: Pool 1 and 5 were therefore deconstructed to assess the effect of individual peptides and their activity on same cell-based screening. Pools 1 and 5 were composed of peptides 45, 46, 42, 3, 49, 11, and 13; and of peptides 1, 9, 30, 35, 41, 43, 7, and 14, respectively. As before, and shown in Figure 4B, the level of expression of probe genes on TWEAK-stimulated (T) BRV5 cells is overall higher than on non-stimulated (NT) one. […] The structural model of peptides 43, 30, 35 and 49 bound to TWEAK can be seen in Figure 5 and Supplementary Materials Figures S4–S6, respectively.
# Three different cell lines were used in this study: BRV5, MDA-MB 435 (435-P), and HT29. The BRV5 is a highly metastatic brain cell line, obtained in one of our laboratories by primary culture from a brain of a nude mouse inoculated with human 435-Br1 brain metastatic cells, as previously described and used as a model to test the peptides in cell cultures. […] The triple negative 435-P cell line is a useful human breast cancer model that expresses both epithelial and melanocytic markers, and was included as the parental cell from which 435-Br1 metastatic variant was initially originated (both cell lines kindly provided by Dr Fabra at IDIBELL Institute, Hospitalet de Llobregat, Spain). Finally, HT29 human colon carcinoma cells obtained from the European Type Culture Collection (ECACC 91072201) were used as a positive control of TWEAK dependent Fn14 over-expressing cells to evaluate TWEAK-Fn14 axis of brain metastatic variants.
# Appropriate cell culture conditions were established as the controls needed in the expression of genes with and without peptides and with and without TWEAK activation, both as pools and individually (see Supplementary Materials Figure S2). The protocol started with the seeding of 125,000 cells/well in 500 µL of culture media supplemented with 10% fetal bovine serum (CM+FBS10%) in 24-well dishes for 24 h before removing FBS (CM-FBS). After overnight starvation in CM-FBS culture, different peptide treatment conditions (at final concentration of 450 µM) were established in the presence or absence of TWEAK (25 ng/mL final concentration) (Peprotech EC, Ltd., London, UK). Some cells were treated with peptides at a single, unique, initial dose (time 0) while other were treated with repeated doses to account for the effect cell-culture degradation. These include a repeated treatment every hour (i.e., […]), every two hours (time 0, 2, and 4) and every three hours (time 0 and 3)—see Supplementary Materials Figure S2 for diagrammatic depiction. At time 6 (after six hours) cells were lysed and RNA extracted for transcriptomic analyses (see next). Cell were culture for six hours as this was the time needed to achieve the highest upregulation of the TWEAK-Fn14 axis upon TWEAK treatment as shown in previous time-course RT-PCR experiments (see Figure 2).
# RNA from cells was extracted 6 h after treatments by direct lysis on the well. The RNeasy Micro kit (Qiagen, Hilden, Germany) was used to isolate total RNA from cell lysate following manufacturer’s protocols including an additional step of digestion with DNase I (Qiagen, Hilden, Germany). Total RNA concentration was measured in a NanoDrop 1000 spectrophotometer (Thermo Scientific, Waltham, MA, USA). The RNA extracted from treated and untreated cells (see above) was used as a proxy for gene expression.
# The quantitative RT-PCR was performed using Fluidigm Dynamic Array FlexSix array with the specific primers for gene expression (Delta Genes Assays, Wet lab tested on Dynamic Array IFC) designed to RefSeq for detection by pPCR EvaGreen assay (Dynamic Array FlexSix, Fluidigm Corporation). Each Flex Six IFC has a total of six independent partitions. Each partition has a 12 × 12 format (12 assay inlets and 12 sample inlets) and will be run independently as a separate experimental run. […]
Substance,regulation of probe genes by individual peptides,BIRC2 mRNA expression (normalized to NARS2) (mean of replicate columns),HSP90B1 mRNA expression (normalized to NARS2) (mean of replicate columns),IL6 mRNA expression (normalized to NARS2) (mean of replicate columns),JUN mRNA expression (normalized to NARS2) (mean of replicate columns),MAP4K4 mRNA expression (normalized to NARS2) (mean of replicate columns),MAPK14 mRNA expression (normalized to NARS2) (mean of replicate columns),NFKB2 mRNA expression (normalized to NARS2) (mean of replicate columns),TNFRSF12A mRNA expression (normalized to NARS2) (mean of replicate columns),TRAF2 mRNA expression (normalized to NARS2) (mean of replicate columns),BIRC2 mRNA expression (normalized to NARS2) (replicate column 1),HSP90B1 mRNA expression (normalized to NARS2) (replicate column 1),IL6 mRNA expression (normalized to NARS2) (replicate column 1),JUN mRNA expression (normalized to NARS2) (replicate column 1),MAP4K4 mRNA expression (normalized to NARS2) (replicate column 1),MAPK14 mRNA expression (normalized to NARS2) (replicate column 1),NFKB2 mRNA expression (normalized to NARS2) (replicate column 1),TNFRSF12A mRNA expression (normalized to NARS2) (replicate column 1),TRAF2 mRNA expression (normalized to NARS2) (replicate column 1),BIRC2 mRNA expression (normalized to NARS2) (replicate column 2),also measured
1: GNGTDDNSGTSY [Peptide 1],lack of effect against the probe genes,0.5966,1.937,0.002365,0.07082,0.1707,0.1634,0.03922,0.01975,0.011,0.538,1.874,0.002307,0.06535,0.1695,0.1671,0.04144,0.01871,0.009637,0.6552,HSP90B1 mRNA expression (normalized to NARS2) (replicate column 2): 2.001; IL6 mRNA expression (normalized to NARS2) (replicate column 2): 0.002424; JUN mRNA expression (normalized to NARS2) (replicate column 2): 0.07629; MAP4K4 mRNA expression (normalized to NARS2) (replicate column 2): 0.1719; MAPK14 mRNA expression (normalized to NARS2) (replicate column 2): 0.1597; NFKB2 mRNA expression (normalized to NARS2) (replicate column 2): 0.037; TNFRSF12A mRNA expression (normalized to NARS2) (replicate column 2): 0.0208; TRAF2 mRNA expression (normalized to NARS2) (replicate column 2): 0.01237; BIRC2 expression Z-Score (listed as P1): 0.2639; HSP90B1 expression Z-Score (listed as P1): -0.5389; IL6 expression Z-Score (listed as P1): 0.4124; JUN expression Z-Score (listed as P1): -0.3055; MAP4K4 expression Z-Score (listed as P1): -0.3569; MAPK14 expression Z-Score (listed as P1): -0.6461; NFKB2 expression Z-Score (listed as P1): -0.1191; TNFRSF12A expression Z-Score (listed as P1): -0.0875 and -0.08748; TRAF2 expression Z-Score (listed as P1): -0.4104
SWYDHMAGDSSY [Peptide 35],lowest overall expression across all genes,0.4507,1.621,0.002118,0.05317,0.1168,0.1368,0.02465,0.01131,0.008162,0.4318,1.578,0.00212,0.0528,0.1079,0.1402,0.02663,0.01132,0.007774,0.4696,HSP90B1 mRNA expression (normalized to NARS2) (replicate column 2): 1.664; IL6 mRNA expression (normalized to NARS2) (replicate column 2): 0.002116; JUN mRNA expression (normalized to NARS2) (replicate column 2): 0.05355; MAP4K4 mRNA expression (normalized to NARS2) (replicate column 2): 0.1258; MAPK14 mRNA expression (normalized to NARS2) (replicate column 2): 0.1335; NFKB2 mRNA expression (normalized to NARS2) (replicate column 2): 0.02267; TNFRSF12A mRNA expression (normalized to NARS2) (replicate column 2): 0.01129; TRAF2 mRNA expression (normalized to NARS2) (replicate column 2): 0.008551; BIRC2 expression Z-Score (listed as P35): -0.7468; HSP90B1 expression Z-Score (listed as P35): -1.1014 and -1.101; IL6 expression Z-Score (listed as P35): 0.1984; JUN expression Z-Score (listed as P35): -0.5085; MAP4K4 expression Z-Score (listed as P35): -1.7018 and -1.702; MAPK14 expression Z-Score (listed as P35): -1.1107 and -1.111; NFKB2 expression Z-Score (listed as P35): -1.5063 and -1.506; TNFRSF12A expression Z-Score (listed as P35): -1.0476 and -1.048; TRAF2 expression Z-Score (listed as P35): -0.5479
42: YNGHVKDD [Peptide 42],lack of effect against the probe genes,0.5389,2.753,0.00216,0.08082,0.2296,0.2228,0.05504,0.02325,0.01684,0.5109,2.683,0.001723,0.07685,0.2119,0.2124,0.04902,0.02357,0.01769,0.5668,HSP90B1 mRNA expression (normalized to NARS2) (replicate column 2): 2.8231; IL6 mRNA expression (normalized to NARS2) (replicate column 2): 0.002596; JUN mRNA expression (normalized to NARS2) (replicate column 2): 0.08479; MAP4K4 mRNA expression (normalized to NARS2) (replicate column 2): 0.2473; MAPK14 mRNA expression (normalized to NARS2) (replicate column 2): 0.2332; NFKB2 mRNA expression (normalized to NARS2) (replicate column 2): 0.06106; TNFRSF12A mRNA expression (normalized to NARS2) (replicate column 2): 0.02293; TRAF2 mRNA expression (normalized to NARS2) (replicate column 2): 0.01599; BIRC2 expression Z-Score (listed as P42): -0.1362; HSP90B1 expression Z-Score (listed as P42): 0.9131; IL6 expression Z-Score (listed as P42): 0.2346; JUN expression Z-Score (listed as P42): -0.1905; MAP4K4 expression Z-Score (listed as P42): 1.1128 and 1.113; MAPK14 expression Z-Score (listed as P42): 0.3913; NFKB2 expression Z-Score (listed as P42): 1.3869 and 1.387; TNFRSF12A expression Z-Score (listed as P42): 0.3098; TRAF2 expression Z-Score (listed as P42): -0.1276
